The values below are quoted from earlier work in paper PMC4875935 (Clinical Pharmacokinetics, 2015).

Structures are written as SMILES. Where “and” joins values, the source holds several entries; their conditions need not be identical. Equal entries are not always repeated.

One data set concerns Candida albicans. The following applies: neutropenic mouse model of disseminated Candida albicans.
Experiment in data set [1]: not given
The source holds these as a separate data set.

For the molecule `CC[C@H](C)C[C@H](C)CCCCCCCCC(=O)N[C@H]1C[C@@H](O)[C@@H](NCCN)NC(=O)[C@@H]2[C@@H](O)CCN2C(=O)[C@H]([C@H](O)CCN)NC(=O)[C@H]([C@H](O)[C@@H](O)c2ccc(O)cc2)NC(=O)[C@@H]2C[C@@H](O)CN2C(=O)[C@H]([C@@H](C)O)NC1=O` [caspofungin], the “AUC/MIC ratio associated with a 1-log kill/24 h” value in the data set on Candida albicans is reported as 865. Further, in the data set on C. albicans, the epidemiological cut-off value was 0.12 µg/mL and the “mode MIC” value is recorded as 0.03 µg/mL. In addition, the CL (earlier studies amongst other patient groups) is 0.40 L/h and 0.46 L/h. Further, the AUC24 typically observed (typically observed for caspofungin) is 100000 ng·h/mL. Besides, the protein bound in data set [1] is 92–97%. The tolerability result in the data set on invasive candidiasis (150 mg daily, patients with invasive candidiasis) is given as “well-tolerated”. Besides, the “clinical and mycological cure at the end of therapy” value with invasive candidiasis (reported response rates in the literature) is on record as 72–73%.
